# Assay results reported in ChEMBL document CHEMBL5150068, “Structure-Based Design of Tropane Derivatives as a Novel Series of CCR5 Antagonists with Broad-Spectrum Anti-HIV-1 Activities and Improved Oral Bioavailability” (J Med Chem, 2022).
# How the values were obtained:
# [1] = Cmax in Sprague-Dawley rat at 10 mg/kg, po measured upto 24 hrs; assay type: ADME, organism-based; parameters: time < 24 hrs, dose 10 mg/kg, route po; conditions: in vivo
# [2] = Clearance in Sprague-Dawley rat at 1 mg/kg, iv measured upto 24 hrs; assay type: ADME, organism-based; conditions: in vivo
# [3] = Tmax in Sprague-Dawley rat at 10 mg/kg, po measured upto 24 hrs; assay type: ADME, organism-based; conditions: in vivo
# [4] = Cytotoxicity against human TZM-bl cells incubated for 48 hrs by MTT assay; assay type: toxicity, cell-based
# [5] = Cytotoxicity against human HOS-CD4-CCR5 cells incubated for 48 hrs by MTT assay; assay type: toxicity, cell-based
# [6] = target: Cytochrome P450 2C19 (Homo sapiens, UniProt P33261); experiment: Inhibition of CYP2C19 (unknown origin); assay type: ADME
# [7] = target: Cytochrome P450 2D6 (Homo sapiens, UniProt P10635); experiment: Inhibition of CYP2D6 (unknown origin); assay type: ADME
# [8] = Half life in Sprague-Dawley rat at 2 mg/kg, iv measured upto 24 hrs; assay type: ADME, organism-based; conditions: Sprague-Dawley, in vivo
# [9] = Cytotoxicity against human PBMC cells incubated for 48 hrs by MTT assay; assay type: toxicity, cell-based
# [10] = target: Cytochrome P450 2C9 (Homo sapiens, UniProt P11712); experiment: Inhibition of CYP2C9 (unknown origin); assay type: ADME
# [11] = AUC (0 to infinitive) in Sprague-Dawley rat at 10 mg/kg, po measured upto 24 hrs; assay type: ADME, organism-based; parameters: dose 10 mg/kg, time < 24 hrs, route po; conditions: in vivo
# [12] = Half life in Sprague-Dawley rat at 1 mg/kg, iv measured upto 24 hrs; assay type: ADME, organism-based; conditions: in vivo
# [13] = Cytotoxicity against human PM1 cells incubated for 48 hrs by MTT assay; assay type: toxicity, cell-based
# [14] = target: T1, Cytochrome P450 1A2 (Homo sapiens, UniProt P05177); experiment: Inhibition of CYP1A2 (unknown origin); assay type: ADME
# T1 sequence (P05177 whole entry): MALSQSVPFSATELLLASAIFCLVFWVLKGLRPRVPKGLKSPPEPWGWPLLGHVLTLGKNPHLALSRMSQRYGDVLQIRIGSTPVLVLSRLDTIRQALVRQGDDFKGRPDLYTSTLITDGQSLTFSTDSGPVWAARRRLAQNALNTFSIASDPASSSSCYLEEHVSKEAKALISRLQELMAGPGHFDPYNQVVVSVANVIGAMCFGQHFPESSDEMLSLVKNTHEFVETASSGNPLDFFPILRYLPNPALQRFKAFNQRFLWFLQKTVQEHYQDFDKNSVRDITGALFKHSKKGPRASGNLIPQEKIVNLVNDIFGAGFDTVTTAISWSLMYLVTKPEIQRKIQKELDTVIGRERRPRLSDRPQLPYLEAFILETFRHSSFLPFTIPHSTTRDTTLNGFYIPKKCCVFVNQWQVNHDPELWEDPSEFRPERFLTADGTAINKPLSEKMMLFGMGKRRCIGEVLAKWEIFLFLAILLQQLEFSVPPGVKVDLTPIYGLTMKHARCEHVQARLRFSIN
# [15] = system: Human immunodeficiency virus 1; experiment: Antiviral activity against HIV-1 KIZ001 clinical isolate infected in human PBMC measured after 48 hrs incubation by luciferase based analysis; assay type: functional, organism-based; conditions: Human immunodeficiency virus 1, KIZ001, PBMC
# [16] = system: Human immunodeficiency virus 1; experiment: Antiviral activity against HIV-1 KIZ006 clinical isolate infected in human PBMC measured after 48 hrs incubation by luciferase based analysis; assay type: functional, organism-based; conditions: Human immunodeficiency virus 1, KIZ006, PBMC
# [17] = system: Human immunodeficiency virus 1; experiment: Synergistic antiviral activity against HIV-1 Ba-L infected in human TZM-bl cells assessed as combination index in presence of dolutegravir; assay type: functional
# [18] = AUC (0 to infinitive) in Sprague-Dawley rat at 2 mg/kg, iv measured upto 24 hrs; assay type: ADME, organism-based; parameters: dose 2 mg/kg, time < 24 hrs, route iv; conditions: in vivo, 24 h
# [19] = system: Human immunodeficiency virus 1; experiment: Synergistic antiviral activity against HIV-1 Ba-L infected in human TZM-bl cells assessed as combination index in presence of tenofovir; assay type: functional
# [20] = Half life in Sprague-Dawley rat at 10 mg/kg, po measured upto 24 hrs; assay type: ADME, organism-based; conditions: in vivo
# [21] = target: T2, Cytochrome P450 3A4 (Homo sapiens, UniProt P08684); experiment: Inhibition of CYP3A4 (unknown origin) using testosterone as substrate; assay type: ADME
# [22] = system: Human immunodeficiency virus 1; experiment: Synergistic antiviral activity against HIV-1 Ba-L infected in human TZM-bl cells assessed as combination index in presence of nevirapine; assay type: functional
# [23] = system: Human immunodeficiency virus 1; experiment: Synergistic antiviral activity against HIV-1 Ba-L infected in human TZM-bl cells assessed as combination index in presence of lamivudine; assay type: functional
# [24] = system: Human immunodeficiency virus 1; experiment: Antiviral activity against HIV-1 Ba-L infected in human TZM-bl cells measured after 48 hrs incubation by luciferase based analysis; assay type: functional, organism-based; conditions: Human immunodeficiency virus 1, Ba-L
# [25] = system: Human immunodeficiency virus 1; experiment: Synergistic antiviral activity against HIV-1 Ba-L infected in human TZM-bl cells assessed as combination index in presence of raltegravir; assay type: functional
# [26] = system: Human immunodeficiency virus 1; experiment: Antiviral activity against HIV-1 SF162 infected in human TZM-bl cells measured after 48 hrs incubation by luciferase based analysis; assay type: functional, organism-based; conditions: Human immunodeficiency virus 1, SF162, TZM-bl
# [27] = system: Human immunodeficiency virus 1; experiment: Synergistic antiviral activity against HIV-1 Ba-L infected in human TZM-bl cells assessed as combination index in presence of etravirine; assay type: functional
# [28] = target: T2, Cytochrome P450 3A4; experiment: Inhibition of CYP3A4 (unknown origin) using midazolam as substrate; assay type: ADME
# [29] = system: Human immunodeficiency virus 1; experiment: Synergistic antiviral activity against HIV-1 Ba-L infected in human TZM-bl cells assessed as combination index in presence of efavirenz; assay type: functional
# [30] = system: Human immunodeficiency virus 1; experiment: Synergistic antiviral activity against HIV-1 Ba-L infected in human TZM-bl cells assessed as combination index in presence of zidovudine; assay type: functional
# [31] = system: Human immunodeficiency virus 1; experiment: Synergistic antiviral activity against HIV-1 Ba-L infected in human TZM-bl cells assessed as combination index in presence of emtricitabine; assay type: functional
# [32] = system: Human immunodeficiency virus 1; experiment: Antiviral activity against HIV-1 KM018 clinical isolate infected in human PBMC measured after 48 hrs incubation by luciferase based analysis; assay type: functional, organism-based; conditions: Human immunodeficiency virus 1, KM018, PBMC
# [33] = in vitro; conditions: human, PBMC
# Description: Therapeutic index, ratio of CC50 for human PBMC to EC50 for antiviral activity against HIV-1 KIZ006 clinical isolate
# [34] = system: Human immunodeficiency virus 1; experiment: Antiviral activity against HIV-1 Ba-L infected in human HOS-CD4-CCR5 cells measured after 48 hrs incubation by ELISA based p24 antigen assay; assay type: functional, organism-based; conditions: Human immunodeficiency virus 1, Ba-L
# [35] = AUC (0 to last) in Sprague-Dawley rat at 2 mg/kg, iv measured upto 24 hrs; assay type: ADME, organism-based; parameters: dose 2 mg/kg, time < 24 hrs, route iv; conditions: in vivo, 24 h
# [36] = in vitro; conditions: human, PM1 cells
# Description: Therapeutic index, ratio of CC50 for human PM1 cells to EC50 for antiviral activity against HIV-1 SF162
# [37] = in vitro; conditions: human, TZM-bl cells
# Description: Therapeutic index, ratio of CC50 for human TZM-bl cells to EC50 for antiviral activity against HIV-1 Ba-L
# [38] = target: C-C chemokine receptor type 5 (Homo sapiens, UniProt P51681); experiment: Antagonist activity at CCR5 (unknown origin) expressed in HEK293 cells co-expressing Galpha16 assessed as intracellular calcium change incubated for 15 mins by Fluo-4 AM calcium flux assay; assay type: functional, cell-based
# [39] = MRT in Sprague-Dawley rat at 2 mg/kg, iv measured upto 24 hrs; assay type: ADME, organism-based; conditions: Sprague-Dawley, in vivo, read-out: MRT
# [40] = system: Human immunodeficiency virus 1; experiment: Antiviral activity against HIV-1 IIIB infected in human TZM-bl cells measured after 48 hrs incubation by luciferase based analysis; assay type: functional, organism-based; conditions: Human immunodeficiency virus 1, IIIB
# [41] = MRT in Sprague-Dawley rat at 10 mg/kg, po measured upto 24 hrs; assay type: ADME, organism-based; conditions: in vivo
# [42] = in vitro; conditions: human, HOS-CD4-CCR5 cells
# Description: Therapeutic index, ratio of CC50 for human HOS-CD4-CCR5 cells to EC50 for antiviral activity against HIV-1 Ba-L
# [43] = in vitro; conditions: human, PBMC; remark: listed apart in the source
# Description: Therapeutic index, ratio of CC50 for human PBMC to EC50 for antiviral activity against HIV-1 KM018 clinical isolate
# [44] = system: Human immunodeficiency virus 1; experiment: Synergistic antiviral activity against HIV-1 Ba-L infected in human TZM-bl cells assessed as combination index in presence of T-20; assay type: functional
# [45] = system: Human immunodeficiency virus 1; experiment: Antiviral activity against HIV-1 YU-2 (G140S/Q148H) infected in human TZM-bl cells measured after 48 hrs incubation by luciferase based analysis; assay type: functional, organism-based; conditions: Human immunodeficiency virus 1, YU-2 (G140S/Q148H)
# [46] = in vitro; conditions: human, PBMC; remark: listed apart in the source
# Description: Therapeutic index, ratio of CC50 for human PBMC to EC50 for antiviral activity against HIV-1 KIZ001 clinical isolate
# [47] = system: Human immunodeficiency virus 1; experiment: Antiviral activity against HIV-1 YU-2 infected in human TZM-bl cells measured after 48 hrs incubation by luciferase based analysis; assay type: functional, organism-based; conditions: Human immunodeficiency virus 1, YU-2, TZM-bl, 48 h
# [48] = in vitro; conditions: human, PM1 cells; remark: listed apart in the source
# Description: Therapeutic index, ratio of CC50 for human PM1 cells to EC50 for antiviral activity against HIV-1 Ba-L
# [49] = system: Human immunodeficiency virus 1; experiment: Antiviral activity against HIV-1 Ba-L infected in human PM1 cells measured after 48 hrs incubation by ELISA based p24 antigen assay; assay type: functional, organism-based; conditions: Human immunodeficiency virus 1, Ba-L, PM1, 48 h
# [50] = in vitro; conditions: human, PM1 cells; remark: listed apart in the source
# Description: Therapeutic index, ratio of CC50 for human PM1 cells to EC50 for antiviral activity against HIV-1 YU-2
# [51] = Oral bioavailability in Sprague-Dawley rat at 10 mg/kg measured upto 24 hrs; assay type: ADME, organism-based; conditions: in vivo, po, 10 mg/kg, 24 h
# [52] = system: Human immunodeficiency virus 1; experiment: Synergistic antiviral activity against HIV-1 Ba-L infected in human TZM-bl cells assessed as combination index in presence of indinavir; assay type: functional
# [53] = AUC (0 to last) in Sprague-Dawley rat at 10 mg/kg, po measured upto 24 hrs; assay type: ADME, organism-based; parameters: dose 10 mg/kg, time < 24 hrs, route po; conditions: in vivo
# T2 sequence (P08684 whole entry): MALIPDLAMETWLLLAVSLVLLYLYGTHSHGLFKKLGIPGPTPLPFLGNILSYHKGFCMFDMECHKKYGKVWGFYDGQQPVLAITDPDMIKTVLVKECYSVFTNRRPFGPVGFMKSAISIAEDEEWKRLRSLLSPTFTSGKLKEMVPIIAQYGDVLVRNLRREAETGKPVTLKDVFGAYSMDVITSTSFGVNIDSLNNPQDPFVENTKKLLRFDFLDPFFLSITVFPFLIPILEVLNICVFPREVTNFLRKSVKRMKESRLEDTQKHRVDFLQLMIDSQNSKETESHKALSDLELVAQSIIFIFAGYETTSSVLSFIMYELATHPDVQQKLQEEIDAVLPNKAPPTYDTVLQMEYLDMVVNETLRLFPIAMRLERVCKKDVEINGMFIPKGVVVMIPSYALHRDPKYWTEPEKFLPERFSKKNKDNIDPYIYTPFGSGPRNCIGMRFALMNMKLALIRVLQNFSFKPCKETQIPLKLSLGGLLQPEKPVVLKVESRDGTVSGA
# Chain of Cytochrome P450 2C19 (P33261 whole entry): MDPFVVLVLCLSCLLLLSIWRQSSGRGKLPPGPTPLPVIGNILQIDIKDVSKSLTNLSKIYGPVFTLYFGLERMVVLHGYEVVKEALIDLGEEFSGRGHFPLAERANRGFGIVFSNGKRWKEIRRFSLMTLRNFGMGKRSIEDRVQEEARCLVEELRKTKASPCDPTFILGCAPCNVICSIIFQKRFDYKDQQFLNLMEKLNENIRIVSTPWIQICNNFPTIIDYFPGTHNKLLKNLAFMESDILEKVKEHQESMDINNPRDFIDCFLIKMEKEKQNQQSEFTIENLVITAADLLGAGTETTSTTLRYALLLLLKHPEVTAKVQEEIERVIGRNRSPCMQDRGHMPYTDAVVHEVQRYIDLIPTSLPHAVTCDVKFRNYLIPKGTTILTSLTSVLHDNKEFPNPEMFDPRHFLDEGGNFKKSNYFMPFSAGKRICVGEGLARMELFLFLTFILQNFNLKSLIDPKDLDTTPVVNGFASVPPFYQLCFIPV
# Chain of Cytochrome P450 2D6 (P10635 whole entry): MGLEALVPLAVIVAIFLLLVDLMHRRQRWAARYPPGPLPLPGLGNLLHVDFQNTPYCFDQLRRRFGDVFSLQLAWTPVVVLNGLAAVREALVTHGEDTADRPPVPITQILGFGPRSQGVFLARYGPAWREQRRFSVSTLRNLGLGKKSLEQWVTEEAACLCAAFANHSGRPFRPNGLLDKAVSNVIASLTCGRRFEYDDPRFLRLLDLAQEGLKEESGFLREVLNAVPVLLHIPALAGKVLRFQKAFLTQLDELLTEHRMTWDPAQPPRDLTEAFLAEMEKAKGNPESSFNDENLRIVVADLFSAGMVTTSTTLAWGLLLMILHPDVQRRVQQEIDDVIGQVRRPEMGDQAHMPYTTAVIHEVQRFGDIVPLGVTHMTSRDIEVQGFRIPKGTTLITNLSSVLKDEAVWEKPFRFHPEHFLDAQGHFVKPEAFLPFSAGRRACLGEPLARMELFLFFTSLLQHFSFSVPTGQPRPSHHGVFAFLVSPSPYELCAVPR
# Chain of Cytochrome P450 2C9 (P11712 whole entry): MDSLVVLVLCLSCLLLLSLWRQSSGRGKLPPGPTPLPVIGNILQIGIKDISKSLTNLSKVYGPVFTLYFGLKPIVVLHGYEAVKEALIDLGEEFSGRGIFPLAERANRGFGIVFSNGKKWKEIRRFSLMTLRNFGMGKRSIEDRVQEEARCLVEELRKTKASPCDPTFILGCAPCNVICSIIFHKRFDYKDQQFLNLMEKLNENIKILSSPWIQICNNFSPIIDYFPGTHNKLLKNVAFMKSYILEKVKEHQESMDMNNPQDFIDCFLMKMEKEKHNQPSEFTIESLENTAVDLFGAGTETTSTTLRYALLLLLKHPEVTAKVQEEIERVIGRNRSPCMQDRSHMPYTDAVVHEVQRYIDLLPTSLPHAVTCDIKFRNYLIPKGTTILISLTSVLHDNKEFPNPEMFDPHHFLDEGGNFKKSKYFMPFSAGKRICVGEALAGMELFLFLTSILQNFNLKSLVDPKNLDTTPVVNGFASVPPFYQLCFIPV
# Chain of C-C chemokine receptor type 5 (P51681 whole entry): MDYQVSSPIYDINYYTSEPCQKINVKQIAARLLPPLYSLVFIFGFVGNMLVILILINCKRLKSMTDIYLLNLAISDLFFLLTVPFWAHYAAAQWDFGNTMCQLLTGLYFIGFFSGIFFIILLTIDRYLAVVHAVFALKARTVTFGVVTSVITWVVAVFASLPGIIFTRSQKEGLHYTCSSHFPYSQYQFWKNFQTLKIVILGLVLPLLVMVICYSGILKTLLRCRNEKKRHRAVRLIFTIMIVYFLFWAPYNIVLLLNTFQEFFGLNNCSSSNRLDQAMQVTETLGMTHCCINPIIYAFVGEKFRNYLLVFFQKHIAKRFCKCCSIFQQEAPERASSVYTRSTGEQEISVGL
smiles,measurement,setting,value
Cc1nnc(C(C)C)n1[C@@H]1C[C@H]2CC[C@@H](C1)N2CC[C@H](NC(=O)C1CCC(F)(F)CC1)c1ccccc1 [MARAVIROC],Cmax,[1],5.5 ng/mL
same,clearance,[2],74 mL/min/kg
same,Tmax,[3],2 h
same,CC50 at 48 h,[4],> 200000 nM
same,CC50 at 48 h,[5],> 200000 nM
same,IC50,[6],> 25000 nM
same,IC50,[7],> 25000 nM
same,half-life,[8],0.9 h
same,CC50 at 48 h,[9],> 200000 nM
same,IC50,[10],14400 nM
same,AUC(0-inf),[11]; Sprague-Dawley,12.4 ng·h/mL
same,half-life,[12],0.9 h
same,CC50 at 48 h,[13],> 200000 nM
same,IC50,[14],> 25000 nM
CC(=O)N1CCc2c(nc(C)n2[C@@H]2C[C@H]3CC[C@@H](C2)N3CC[C@H](NC(=O)C2CCC(F)(F)CC2)c2ccsc2)C1,EC50,[15],5.26 nM
same,Cmax,[1],66.4 ng/mL
same,EC50,[16],19 nM
same,Tmax,[3],2.67 h
same,CI,[17],0.5
same,AUC,[18],3.44 ng·h/mL
same,CI,[19],0.47
same,half-life,[20],6.44 h
same,IC50,[21],> 25000 nM
same,CI,[22],0.41
same,CI,[23],0.69
same,EC50,[24],10 nM
same,CI,[25],0.46
same,EC50,[26],7.64 nM
same,CC50 at 48 h,[4],> 200000 nM
same,CI,[27],0.75
same,CC50 at 48 h,[5],> 200000 nM
same,IC50,[28],> 25000 nM
same,CI,[29],0.85
same,CI,[30],0.6
same,IC50,[6],> 25000 nM
same,CI,[31],0.44
same,EC50,[32],23.3 nM
same,selectivity ratio,[33],5390
same,EC50,[34],0.66 nM
same,AUC,[35],270 ng·h/mL
same,IC50,[7],> 25000 nM
same,half-life,[8],3.34 h
same,selectivity ratio,[36],> 26200
same,selectivity ratio,[37],> 20000
same,CC50 at 48 h,[9],103000 nM
same,IC50,[10],> 25000 nM
same,AUC,[11]; 24 h,270 ng·h/mL
same,IC50,[38],15.9 nM
same,MRT,[39],9.16 h
same,EC50,[40],> 1000 nM
same,MRT,[41],9.16 h
same,selectivity ratio,[42],> 30300
same,selectivity ratio,[43],4400
same,CI,[44],0.33
same,EC50,[45],2.71 nM
same,selectivity ratio,[46],19500
same,EC50,[47],2.89 nM
same,CC50 at 48 h,[13],> 200000 nM
same,selectivity ratio,[48],> 69000
same,EC50,[49],0.29 nM
same,selectivity ratio,[50],> 69200
same,F,[51],11.9%
same,IC50,[14],> 25000 nM
same,CI,[52],0.95
same,AUC(0-t) at 24 h,[53],270 ng·h/mL
